Assay results published in ChEMBL document CHEMBL2040728, “New substituted 4H-chromenes as anticancer agents” (Bioorg Med Chem Lett, 2012).
Calls of active or inactive are those of the source. The rule behind the calls is not given here.

What was measured:
LNCaP = assay: Antiproliferative activity against human LNCAP cells after 96 hrs by SRB assay; format: functional, cell-based
[1] = Antiproliferative activity against human paclitaxel-resistant PC3-TxR cells after 96 hrs by SRB assay; format: functional, cell-based
PC-3 = assay: Antiproliferative activity against human PC3 cells after 96 hrs by SRB assay; format: functional, cell-based; conditions: PC-3, 96 h
[2] = Antiproliferative activity against human WM164 cells after 48 hrs by SRB assay; format: functional, cell-based; conditions: WM164, 48 h
A-375 = assay: Antiproliferative activity against human A375 cells after 48 hrs by SRB assay; format: functional, cell-based; conditions: A-375, 48 h
Bos taurus = species on record: Bos taurus; assay: Inhibition of bovine brain tubulin polymerization at 5 uM after 20 mins by spectrophotometric analysis relative to control

Row | Compound | IC50 (LNCaP) | IC50 [1] | IC50 (PC-3) | IC50 [2] | IC50 (A-375) | inhibition (Bos taurus)
1 | COc1ccc(C2C(C#N)=C(N)Oc3cc(N(C)C)ccc32)c2ccccc12 (stereo unspecified) | 760 nM | 530 nM | 430 nM | 490 nM | 440 nM | –
2 | CC(=O)O[C@H]1C(=O)[C@@]2(C)[C@H]([C@H](OC(=O)c3ccccc3)[C@]3(O)C[C@H](OC(=O)[C@H](O)[C@@H](NC(=O)c4ccccc4)c4ccccc4)C(C)=C1C3(C)C)[C@]1(OC(C)=O)CO[C@@H]1C[C@@H]2O | – | – | – | – | – | inactive
3 | CN(C)c1ccc2c(c1)OC(N)=C(C#N)C2c1cccc2c(Br)cccc12 (stereo unspecified) | 280 nM | 210 nM | 390 nM | 220 nM | 140 nM | –
4 | CN(C)c1ccc2c(c1)OC(N)=C(C#N)C2c1ccc(F)c2ccccc12 (stereo unspecified) | 410 nM | 290 nM | 640 nM | 470 nM | 280 nM | –
